Data from ChEMBL document CHEMBL6109047, “Synthesis strategies and anti-parasitic evaluation of novel compounds for chagas disease: Advancing drug discovery through structure-activity relationships” (Eur J Med Chem, 2025).
Each block holds one molecule with its values, some of them ahead of it.

Legend:
[1] = tested on: Trypanosoma cruzi; test: Antitrypanosomal activity against bloodstream trypomastigote form of Trypanosoma cruzi Y assessed as parasite growth inhibition incubated for 24 hrs by light microscopic analysis; type: functional, organism-based
[2] = Toxicity in CD-1 mouse infected with Trypanosoma cruzi Y trypomastigotes assessed as mortality at 50 mg/kg/day, po pre-infected with parasite followed by compound addition and measured after 15 days relative to control; type: organism-based; conditions: in vivo, 360 h, time 15 day
[3] = Cytotoxicity against rhesus monkey LLC-MK2 cells; type: toxicity, cell-based, Macaca mulatta
[4] = tested on: Trypanosoma cruzi; test: Antitrypanosomal activity against Trypanosoma cruzi Tulahuen amastigotes expressing Escherichia coli beta-galactosidase infected in LLC-MK2 cells incubated for 48 hrs; type: functional, organism-based; conditions: LLC-MK2, 48 h
[5] = tested on: Trypanosoma cruzi; test: Antitrypanosomal activity against bloodstream trypomastigote form of Trypanosoma cruzi Y; type: functional, organism-based
[6] = tested on: Trypanosoma cruzi; test: Antitrypanosomal activity against Trypanosoma cruzi Y strain trypomastigotes Vero cells assessed as inhibition of parasite growth incubated for 24 hrs by Neubauer chamber based analysis; type: functional, organism-based
[7] = tested on: Trypanosoma cruzi; test: Antitrypanosomal activity against bloodstream trypomastigote form of Trypanosoma cruzi Y assessed as reduction in parasite growth; type: functional, organism-based
[8] = tested on: Trypanosoma cruzi; test: Antitrypanosomal activity against Trypanosoma cruzi Tulahuen-2 infected in […] J774 cells assessed as inhibition of parasite proliferation; type: functional, organism-based; conditions: Tulahuen-2, J774
[9] = tested on: Trypanosoma cruzi; test: Trypanocidal activity against Trypanosoma cruzi NINOA epimastigotes incubated for 24 hrs by Neubauer chamber method; type: functional, organism-based
[10] = tested on: Trypanosoma cruzi; test: Trypanocidal activity against Trypanosoma cruzi Tulahuen-2 epimastigotes incubated for 24 hrs by Neubauer chamber method; type: functional, organism-based; conditions: Tulahuen-2, 24 h
[11] = tested on: Trypanosoma cruzi; test: Antitrypanosomal activity against bloodstream […] form of Trypanosoma cruzi Y; type: functional, organism-based
[12] = tested on: Trypanosoma cruzi; test: Anti-trypanosomal activity against Trypanosoma cruzi Y trypomastigotes infected in mouse RAW264.7 cells assessed as inhibition of parasite release measured for 48 hrs; type: functional, organism-based; conditions: RAW264.7, 48 h
[13] = Toxicity in CD-1 mouse infected with Trypanosoma cruzi Y MHOM/MX/1994/INC5 from blood stream trypomastigotes assessed as reduction in parasite growth by measuring lethal concentration; conditions: in vivo, 24 h
[14] = Toxicity in CD-1 mouse infected with Trypanosoma cruzi Y MHOM/MX/1994/NINOA from blood stream trypomastigotes assessed as reduction in parasite growth by measuring lethal concentration; conditions: in vivo, 24 h

SMILES: O=C(Cn1ccnc1[N+](=O)[O-])NCc1ccccc1 [BENZNIDAZOLE]
IC50 [1]: 34.5 µM
Activity [2]: 68.3%
CC50 at 48 h [3]: 156 µM
IC50 [4]: 5.64 µM
IC50 [5]: 91 µM
IC50 [6]: 6.26 µM

SMILES: NC(=S)N/N=C/c1c(C(F)(F)F)nn(-c2ccccc2)c1-c1ccc(Br)cc1
IC50 [5]: 30 µM

SMILES: O=C(Cn1cccc1[N+](=O)[O-])Nc1cccc(C(F)(F)F)c1
CC50 at 48 h [3]: 2.1 µM

SMILES: COc1cccc(/C=C/c2ccc3cccc(O)c3n2)c1CC(=O)O
EC50 [7]: 36 µM

SMILES: NC(=S)N/N=C(\C=C\c1ccc(Cl)cc1)c1ccccc1
IC50 [4]: 12.2 µM

SMILES: CCOC(=O)c1csc(N/N=C/c2ccco2)n1
IC50 [1]: 2.75 µM

SMILES: Fc1cccc(F)c1CSc1nc2ccccc2s1
LC50 [13]: 260 µM
LC50 [14]: 110 µM

SMILES: CCOC(=O)c1csc(N/N=C/c2cccc(Cl)c2)n1
IC50 [1]: 4.44 µM

SMILES: CS/C(N)=N\N=C\c1c(C(F)(F)F)nn(-c2ccccc2)c1-c1ccc(Br)cc1
IC50 [5]: 25.7 µM

SMILES: CCOC(=O)c1csc(N/N=C/c2ccccc2Br)n1
IC50 [1]: 0.83 µM

SMILES: COc1ccc(-c2c(/C=N/N=C(/N)SC)c(C(F)(F)F)nn2-c2ccccc2)cc1
IC50 [5]: 19.1 µM

SMILES: CCC1S/C(=N\N=C(/C)c2ccc(Cl)cc2Cl)NC1=O (stereo not given)
IC50 [6]: 2.57 µM

SMILES: O=C(N/N=C/c1ccc(F)cc1)c1ccccc1
Activity [2]: 46.2%

SMILES: Fc1c(F)c(F)c(CSc2nc3ccccc3s2)c(F)c1F
LC50 [13]: 185 µM
LC50 [14]: 147 µM

SMILES: c1ccc(CSc2nc3ccccc3s2)cc1
LC50 [13]: 336 µM
LC50 [14]: 123 µM

Now from value to molecule, other results behind:

IC50 [6]: 0.85 µM
SMILES: C/C(=N\N=C1/NC(=O)C(c2ccccc2)S1)c1cc(Cl)ccc1Cl (stereo not given)

IC50 [8]: 51 µM
SMILES: Cc1ccc(OC2=C(Br)C(=O)c3ccccc3C2=O)c(C)c1
IC50 [9]: 1.69 µM
IC50 [10]: 0.45 µM

IC50 [5]: 616 µM
IC50 [11]: 10.9 µM
SMILES: Fc1ccc(Nc2cnc3ccccc3c2)cc1
IC50 [10]: 11.3 µM

IC50 [5]: 0.129 µM
SMILES: O=C1c2ccccc2C(=O)c2c1oc1c2CCCC1

IC50 [12]: 4.48 µM
SMILES: COc1ccc(/C(CN2C(=O)c3ccccc3C2=O)=N\Nc2nc(-c3ccc(OC)cc3)cs2)cc1

IC50 [5]: 0.074 µM
SMILES: CC1CCc2oc3c(c2C1)C(=O)C(=O)c1ccccc1-3 (stereo not given)

IC50 [12]: 3.75 µM
SMILES: O=C1c2ccccc2C(=O)N1C/C(=N/NC(=S)Nc1ccccc1)c1ccc(F)cc1

IC50 [8]: 43 µM
SMILES: COc1cc(OC)cc(OC2=C(Oc3cc(OC)cc(OC)c3OC)C(=O)c3ccccc3C2=O)c1
IC50 [9]: 1.3 µM
IC50 [10]: 0.49 µM

IC50 [5]: 0.033 µM
SMILES: CC(C)(C)C1CCc2oc3c(c2C1)C(=O)c1ccccc1C3=O (stereo not given)

IC50 [4]: 7.96 µM
SMILES: COC(=O)/C=C/c1ccc2c(c1)C(C(=O)OC)C(c1ccc(O)c(OC)c1)O2 (stereo not given)
CC50 at 48 h [3]: 0.86 µM

IC50 [12]: 3.6 µM
SMILES: O=C1c2ccccc2C(=O)N1C/C(=N/NC(=S)Nc1ccccc1)c1ccc(Cl)cc1Cl

IC50 [5]: 0.031 µM
SMILES: CC1CCc2oc3c(c2C1)C(=O)c1ccccc1C3=O (stereo not given)

IC50 [4]: 11.9 µM
IC50 [11]: 3.26 µM
SMILES: COC(=O)/C=C/c1ccc2c(c1)C(C(=O)OC)C(c1ccc(O)cc1)O2 (stereo not given)
CC50 at 48 h [3]: 49.9 µM

IC50 [5]: > 500 µM
IC50 [11]: 25.8 µM
SMILES: Clc1ccc(Nc2cnc3ccccc3c2)cc1
IC50 [10]: 12 µM

IC50 [5]: 0.064 µM
SMILES: O=C1C(=O)c2c(oc3c2CCCC3)-c2ccccc21

IC50 [1]: 2.83 µM
SMILES: CCOC(=O)c1csc(N/N=C(\C)c2ccccc2)n1

IC50 [6]: 1.12 µM
SMILES: C/C(=N\N=C1\NC(=O)C(c2ccccc2)S1)c1ccc(Cl)cc1Cl (stereo not given)

EC50 [7]: 40.8 µM
SMILES: O=C(O)Cc1ccccc1/C=C/c1ccc2cccc(O)c2n1

IC50 [5]: 420 µM
IC50 [11]: 22.8 µM
SMILES: Fc1cccc(Nc2cnc3ccccc3c2)c1
IC50 [10]: 13.5 µM
